Measurements reported in patent publication US5714491A, “Peptidyl derivatives as metalloproteinase inhibitors” (Celltech Therapeutics Limited, priority 1993, dated 1998).

Key:
[1] = target: Collagenase; test: Enzyme inhibition assay with fluorogenic peptide substrate, collagenase; type: biochemical; settings: Ki (app) assumed to approximate true Ki
Experimental: (§1) All enzyme assays to determine Ki values were performed using the peptide substrate Dnp-Pro-Leu-Gly-Leu-Trp-Ala-D-Arg-NH2. [M. Sharon Stock and Robert D. Gray, JBC 264, 4277-81, 1989]. The enzymes cleave at the Gly-Leu bond which can be followed fluorimetrically by measuring the increase in Trp fluorescence emission associated with the removal of the quenching dinitrophenol (Dnp) group.
(§2) Essentially, enzyme (e.g. gelatinase, stromelysin, collagenase) at 0.08-2 nM; a range of inhibitor concentrations (0.1-50×Ki) and substrate (approx. 20 μm) are incubated overnight in 0.1M Tris/HCI buffer, pH 7.5, containing 0.1M NaCl, 10 mM CaCl2 and 0.05%. Brij 35 at either room temperature or 37° C. depending on the enzyme. The reaction is stopped by adjusting the pH to 4 using 0.1M sodium acetate buffer and the fluorescence read at an excitation wavelength of 280 nm and emission wavelength of 346 nm.
(§3) Ki values can be established using the equation for tight-binding inhibition: [formula] where VO is the initial rate of reaction in the absence of inhibitor, Vi is the initial rate in the presence of inhibitor, [E] is the total enzyme concentration and [I] the total inhibitor concentration in the reaction mixture.
(§4) For stromelysin and collagenasa, Ki (app) was assumed to approximate to the true Ki as [S]<<Km for the substrate hydrolysis. For gelatinase the Ki was determined by performing the analyses at several substrate concentrations. A plot of Ki (app) vs. [S] then gave the true Ki as the value of the y-axis intercept.

[2] = target: Stromelysin-1 (Homo sapiens, UniProt P08254); test: Enzyme inhibition assay with fluorogenic peptide substrate, stromelysin-1; type: biochemical; settings: Ki (app) assumed to approximate true Ki
Sequence of Stromelysin-1 (P08254 100-477, species assumed): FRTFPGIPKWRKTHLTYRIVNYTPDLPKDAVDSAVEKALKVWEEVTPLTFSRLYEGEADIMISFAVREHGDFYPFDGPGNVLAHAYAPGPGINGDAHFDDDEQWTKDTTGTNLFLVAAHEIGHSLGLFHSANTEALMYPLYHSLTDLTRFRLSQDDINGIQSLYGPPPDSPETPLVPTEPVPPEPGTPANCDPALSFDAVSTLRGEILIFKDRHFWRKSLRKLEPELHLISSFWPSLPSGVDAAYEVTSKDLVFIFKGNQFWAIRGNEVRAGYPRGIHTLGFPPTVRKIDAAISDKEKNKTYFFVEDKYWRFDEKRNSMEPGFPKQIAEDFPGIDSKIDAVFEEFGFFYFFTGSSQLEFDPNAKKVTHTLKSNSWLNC
Experimental: as §1, §2, §3, §4

[3] = target: T1, Gelatinase-72KD (Homo sapiens, UniProt P08253); test: Enzyme inhibition assay with fluorogenic peptide substrate, gelatinase-72KD; type: biochemical; settings: true Ki from plot of Ki (app) vs. [S]
T1 sequence (P08253 110-660): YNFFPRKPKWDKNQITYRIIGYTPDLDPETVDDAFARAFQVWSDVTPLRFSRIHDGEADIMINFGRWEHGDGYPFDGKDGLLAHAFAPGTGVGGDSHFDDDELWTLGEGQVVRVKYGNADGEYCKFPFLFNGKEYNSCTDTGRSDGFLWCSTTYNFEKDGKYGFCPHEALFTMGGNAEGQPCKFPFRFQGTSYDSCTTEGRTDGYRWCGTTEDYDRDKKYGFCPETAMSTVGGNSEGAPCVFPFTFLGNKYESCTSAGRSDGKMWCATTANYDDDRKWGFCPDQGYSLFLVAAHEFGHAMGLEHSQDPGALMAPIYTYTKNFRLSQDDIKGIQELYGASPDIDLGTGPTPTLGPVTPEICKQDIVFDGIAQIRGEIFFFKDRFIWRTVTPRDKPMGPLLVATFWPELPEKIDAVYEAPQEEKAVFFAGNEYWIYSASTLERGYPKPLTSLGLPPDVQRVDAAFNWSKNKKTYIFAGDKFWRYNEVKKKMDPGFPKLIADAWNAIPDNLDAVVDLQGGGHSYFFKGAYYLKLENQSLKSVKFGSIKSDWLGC
Experimental: as §1, §2, §3, §4

[4] = target: T2, gelatinase A (72K form) (Homo sapiens, UniProt P08253); test: Mouse pleural cavity assay (oral activity); type: in vivo; settings: administered orally, around 25 μm/Kg
T2 sequence (P08253 110-660): T1 sequence (P08253 110-660)
Experimental: The oral activity of the compounds according to the invention may be determined using the mouse pleural cavity assay described below. This assay measures the ability of compounds of the invention when adminstered orally to inhibit a subsequent inoculation of gelatinase into the mouse pleural cavity.
A 2 ml solution of the test compound (for example around 25 μm/Kg) in an appropriate solvent (e.g. 50% polyethylene glycol (PG)) plus a variable proportion of dimethyl sulphoxide (DMSO) (if required) is administered orally. After an interval of up to 24 hrs, 0.4 ml of a mixture of an equal volume (2.2 ml) of the enzyme gelatinase A (72K form at a concentration of 20 nM) and radiolabelled [^14 C]-gelatin (at an approximate concentration of 10 μM i.e. 500 times molar excess) is injected into the pleural cavity and maintained at […]. […] The resulting TCA precipitate is then separated by centrifugation and radioactivity in each supernatant measured by scintillation counting. Results are expressed as a % inhibition of enzyme activity calculated by comparing the radioactivity measured for each test compound with a control value obtained by performing the same assay in the absence of a gelatinase inhibitor. […]

| SMILES | Ki [1] | Ki [2] | Ki [3] | % inhibition of enzyme activity [4] |
| --- | --- | --- | --- | --- |
| CNC(=O)[C@H](NC(=O)[C@H](CCCc1ccc(Cl)cc1)CC(=O)NO)C(C)(C)SC [Example 3a), [4-(N-Hydroxyamino)-2(R)-[3-(4-chlorophenyl)propyl]succinyl]-L-[S-(methyl)penicillamine]-N-methylamide] | 26.3 nM | 5.3 nM | 0.005 nM |  |
| CC(C)(S)[C@@H](NC(=O)[C@H](CCCc1ccc(Cl)cc1)CC(=O)NO)C(N)=O [Example 3b), [4-(N-Hydroxyamino)-2(R)-[3-(4-chlorophenyl)propyl]-1-succinyl]-L-penicillamine amide] | 122 nM | 3.6 nM | 0.027 nM | 100% |
| CNC(=O)[C@H](NC(=O)[C@H](CCCc1ccc(Cl)cc1)CC(=O)NO)C(C)(C)S(C)(=O)=O [Example 4, {4-(N-Hydroxyamino)-2(R)-[3-(4-chlorophenyl)propyl]succinyl}-L-[S-(methyl)penicillaminesulphone]-N-methylamide] | 20.7 nM | 5.92 nM | 0.005 nM |  |
